In US20090099195A1 (ASTRAZENECA AB, priority 2007, published 2009):

Experiments:
[1] = molecular target: T1, rat P2X2/3 (rat P2X3 co-expressed with rat P2X2) (Rattus norvegicus, UniProt P49653+P49654); assay: rat P2X2/3 FLIPR calcium (Fluo-4) antagonist assay; details: Rat P2X2/3 FLIPR Mean IC50 (nM), HEK-TREX cells, tetracycline-induced rat P2X3 with constitutive rat P2X2; agonist 500 nM α,β-methylene-ATP
T1 sequence (P49654 1-397): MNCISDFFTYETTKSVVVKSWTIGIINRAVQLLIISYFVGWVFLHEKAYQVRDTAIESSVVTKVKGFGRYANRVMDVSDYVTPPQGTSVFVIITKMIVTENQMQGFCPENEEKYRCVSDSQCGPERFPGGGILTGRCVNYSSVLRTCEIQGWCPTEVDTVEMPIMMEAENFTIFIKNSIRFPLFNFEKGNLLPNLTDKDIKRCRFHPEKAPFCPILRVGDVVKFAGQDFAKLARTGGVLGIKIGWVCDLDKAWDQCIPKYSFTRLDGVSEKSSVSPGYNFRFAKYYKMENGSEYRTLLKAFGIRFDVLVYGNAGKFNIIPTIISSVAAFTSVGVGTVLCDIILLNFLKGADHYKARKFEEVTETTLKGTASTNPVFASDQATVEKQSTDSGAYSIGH
T1 sequence (P49653 1-472): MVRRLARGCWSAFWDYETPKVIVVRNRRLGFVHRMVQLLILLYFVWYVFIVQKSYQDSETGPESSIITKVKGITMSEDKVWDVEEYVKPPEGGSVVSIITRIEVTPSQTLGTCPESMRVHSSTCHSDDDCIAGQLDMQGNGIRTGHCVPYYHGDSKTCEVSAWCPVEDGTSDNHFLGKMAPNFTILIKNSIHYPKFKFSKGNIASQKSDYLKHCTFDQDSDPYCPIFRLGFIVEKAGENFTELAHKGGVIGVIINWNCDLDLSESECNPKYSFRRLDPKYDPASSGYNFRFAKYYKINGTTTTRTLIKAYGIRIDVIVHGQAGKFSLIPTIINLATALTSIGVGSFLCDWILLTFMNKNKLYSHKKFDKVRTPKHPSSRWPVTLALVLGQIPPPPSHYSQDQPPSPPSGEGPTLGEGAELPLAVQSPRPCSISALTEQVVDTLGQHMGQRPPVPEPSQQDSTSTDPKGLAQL
Protocol: The assay used a calcium indicator dye (Fluo-4) that emits fluorescence, the intensity of which is related to the concentration of calcium that entered the cell when P2X3 was activated and the channel opened. Activation of hP2X3 or rat P2X3 and rat P2X2/3 (from the coexpression of rat P2X3 and rat P2×2) is elicited the by P2X3 agonist α,β methylene-ATP (Sigma M6517), and the resulting fluorescence is measured with a FLIPR II™ instrument (Molecular Devices). Compounds are tested for their ability to inhibit the agonist-induced fluorescent signal.
For the rat P2X2/3 HEK-TREX cells, induction of the rat P2X3 expression is used to generate the rat P2X2/3 channels in HEK-TREX cells and performed by addition of 1 μg/mL tetracycline (Invitrogen) 24 h prior to compounds testing to the HEK-TREX expressing the rat P2X2 constitutively. On the day of the experiment, the cells and test compounds are prepared as follows. […] After preparing the compounds, the medium is removed from the cell plates by inversion. A loading solution of 30 μL assay buffer containing 4 μM of the calcium indicator dye FLUO-4 AM (Molecular Probes F14202) is added to each well using a Multidrop (Labsystems). […] The incubation is terminated by washing the cells four times in assay buffer using a Skatron Embla (Molecular Devices), and 25 μL of assay buffer was left in each well. Cell plates are then transferred to the FLIPR. Experiments are initiated by measuring a baseline fluorescence reading for 10 seconds, followed by the addition of 12.5 μL of cpds and data sampling for a total 280 seconds. The experiments are terminated by addition of 12.5 μL of a reference agonist (500 nM α,β-methylene-ATP) or buffer, producing a final assay volume of 50 μL followed by data sampling for an additional 280 seconds.
In P2X3 antagonist experiments (human and rat assays) data are analysed as normalised maximal peak fluorescence monitored following agonist addition and calculated as percent of relative fluorescent counts from control agonist. The dose-response antagonist inhibition curves are analyzed in a 4-parameter sigmoidal fit using a non-linear curve-fitting program (XLfit version 5.0.6, ID Business Solutions Limited, Guildford, UK).

[2] = molecular target: T2, hP2X3 (human Purinergic P2X receptors subtype 3), clone B (Homo sapiens, UniProt P56373); assay: hP2X3 FLIPR calcium (Fluo-4) antagonist assay, clone B; details: Human P2X3 FLIPR Clone B IC50 (nM), RLE cells expressing hP2X3 clone B (NM_002559); agonist 500 nM α,β-methylene-ATP
T2 sequence (P56373 1-397): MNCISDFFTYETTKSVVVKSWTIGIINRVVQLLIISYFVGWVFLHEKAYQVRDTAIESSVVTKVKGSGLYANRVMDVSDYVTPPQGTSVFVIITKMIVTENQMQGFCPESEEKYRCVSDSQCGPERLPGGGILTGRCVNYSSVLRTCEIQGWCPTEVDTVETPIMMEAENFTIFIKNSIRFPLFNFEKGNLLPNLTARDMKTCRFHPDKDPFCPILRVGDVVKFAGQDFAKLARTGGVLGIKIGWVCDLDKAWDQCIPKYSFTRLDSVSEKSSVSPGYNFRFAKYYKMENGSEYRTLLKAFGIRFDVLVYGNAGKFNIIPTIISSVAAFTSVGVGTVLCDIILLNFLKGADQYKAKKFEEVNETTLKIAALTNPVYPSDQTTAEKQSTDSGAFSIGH

Compound | IC50 [1] [nM] | IC50 [2] [nM]
CC(=O)N1CCN(c2nc3c(c(N4CCC[C@@H]4C(=O)Oc4ccccc4)n2)CN(C(C)C)C3=O)CC1 [Example 304, phenyl (2R)-1-[4-(4-acetylpiperazin-1-yl)-7-oxo-8-propan-2-yl-3,5,8-triazabicyclo[4.3.0]nona-1,3,5-trien-2-yl]pyrrolidine-2-carboxylate] | 8730 | 71
CC(=O)N1CCN(c2nc3c(c(N4CCCC4Cc4ccc(C)cc4)n2)CN(C(C)C)C3=O)CC1 (centres unmarked) [Example 47, 2-(4-acetylpiperazin-1-yl)-6-isopropyl-4-[2-(4-methylbenzyl)pyrrolidin-1-yl]-5,6-dihydro-7H-pyrrolo[3,4-d]pyrimidin-7-one] | 2680 | 130
CCC(C)N1Cc2c(NCc3cnc4ccccc4c3)nc(N3CCN(C(C)=O)CC3)nc2C1=O (single isomer, unassigned; (+)) [Example 308, (+)-2-(4-acetylpiperazin-1-yl)-4-(3-quinolylmethylamino)-6-sec-butyl-5H-pyrrolo[3,4-d]pyrimidin-7-one] | 10300 | 20
CC(=O)N1CCN(c2nc(NC(C)(C)Cc3ccc(F)cc3)c3c(n2)C(=O)N(C(C)C)C3)CC1C (centres unmarked) [Example 138, 2-(4-Acetyl-3-methyl-piperazin-1-yl)-4-[2-(4-fluoro-phenyl)-1,1-dimethyl-ethylamino]-6-isopropyl-5,6-dihydro-pyrrolo[3,4-d]pyrimidin-7-one] | 16200 | 750
CC(=O)N1CCN(c2nc3c(c(N4CCCC4c4cnc5ccccc5c4)n2)CN(C(C)C)C3=O)CC1 (centres unmarked) [Example 274, 4-(4-acetylpiperazin-1-yl)-8-propan-2-yl-2-(2-quinolin-3-ylpyrrolidin-1-yl)-3,5,8-triazabicyclo[4.3.0]nona-1,3,5-trien-7-one] | 768 | 170
CC(=O)N1CCN(c2nc3c(c(N4CCCC4c4ccc5ncccc5c4)n2)CN(C(C)C)C3=O)CC1 (centres unmarked) [Example 281, 4-(4-acetylpiperazin-1-yl)-8-propan-2-yl-2-(2-quinolin-6-ylpyrrolidin-1-yl)-3,5,8-triazabicyclo[4.3.0]nona-1,3,5-trien-7-one] | 11400 | 140
CC(=O)N1CCN(c2nc3c(c(N4CCCC4c4cnc5ccccc5c4)n2)CN(C(C)C)C3=O)CC1 (single isomer, unassigned) [Example 283, 4-(4-acetylpiperazin-1-yl)-8-propan-2-yl-2-(2-quinolin-3-ylpyrrolidin-1-yl)-3,5,8-triazabicyclo[4.3.0]nona-1,3,5-trien-7-one] | 253 | 87
COc1ccc(CC2CCCN2c2nc(N3CCN(C(C)=O)CC3)nc3c2CN(C(C)C)C3=O)cc1 (centres unmarked) [Example 286, 2-(4-acetylpiperazin-1-yl)-6-isopropyl-4-[2-[(4-methoxyphenyl)methyl]pyrrolidin-1-yl]-5H-pyrrolo[3,4-d]pyrimidin-7-one] | 3430 | 67
CC(=O)N(C)C1CCN(c2nc(NCc3cnc4ccccc4c3)c3c(n2)C(=O)N(C(C)C)C3)C1 (centres unmarked) [Example 208, N-(1-(6-isopropyl-7-oxo-4-(quinolin-3-ylmethylamino)-6,7-dihydro-5H-pyrrolo[3,4-d]pyrimidin-2-yl)pyrrolidin-3-yl)-N-methylacetamide] | 17600 | 680
COc1ccc(CC2CCCN2c2nc(N3CCN(C(C)=O)CC3)nc3c2CN(C(C)C)C3=O)cc1 (single isomer, unassigned) [Example 287, 2-(4-acetylpiperazin-1-yl)-6-isopropyl-4-[2-[(4-methoxyphenyl)methyl]pyrrolidin-1-yl]-5H-pyrrolo[3,4-d]pyrimidin-7-one] | 1500 | 53
CCOc1ccc([C@@H](C)Nc2nc(N3CCN(C(C)=O)CC3)nc3c2CN(C(C)C)C3=O)cc1Cl [Example 159, (R)-2-(4-acetylpiperazin-1-yl)-4-(1-(3-chloro-4-ethoxyphenyl)ethylamino)-6-isopropyl-5H-pyrrolo[3,4-d]pyrimidin-7(6H)-one] | 547 | 37

The next lines start with the values.

IC50 [1] [nM] | IC50 [2] [nM] | Compound
13800 | 83 | CC(=O)N1CCN(c2nc(NCc3ccc4ncccc4c3)c3c(n2)C(=O)N(C(C)C)C3)CC1 [Example 235, 2-(4-acetylpiperazin-1-yl)-6-isopropyl-4-(quinolin-6-ylmethylamino)-5H-pyrrolo[3,4-d]pyrimidin-7(6H)-one]
9070 | 77 | CC(=O)N1CCN(c2nc(NCc3cc(C)c4ncccc4c3)c3c(n2)C(=O)N(C(C)C)C3)CC1 [Example 247, 2-(4-acetylpiperazin-1-yl)-6-isopropyl-4-((8-methylquinolin-6-yl)methylamino)-5H-pyrrolo[3,4-d]pyrimidin-7(6H)-one]
40000 | 6000 | COc1cccc(C2CCCN2c2nc(N3CCN(C(C)=O)CC3)nc3c2CN(C(C)C)C3=O)c1 (centres unmarked) [Example 131, 2-(4-Acetylpiperazin-1-yl)-6-isopropyl-4-(2-(3-methoxyphenyl)pyrrolidin-1-yl)-5H-pyrrolo[3,4-d]pyrimidin-7(6H)-one]
7380 | 87 | CC(=O)N1CCN(c2nc(N[C@H](C)c3cccc(C(F)(F)F)c3)c3c(n2)C(=O)N(C(C)C)C3)CC1 [Example 230, (R)-2-(4-acetylpiperazin-1-yl)-6-isopropyl-4-(1-(3-(trifluoromethyl)phenyl)ethylamino)-5H-pyrrolo[3,4-d]pyrimidin-7(6H)-one]
234 | 35 | CC(=O)N1CCN(c2nc(N[C@H](C)c3cnc4ccccc4c3)c3c(n2)C(=O)N(C(C)C)C3)CC1 (single isomer, unassigned) [Example 344]
237 | 60 | CC(=O)N1CCN(c2nc(NC(C)c3cnn(-c4ccccc4)c3)c3c(n2)C(=O)N(C(C)C)C3)CC1 (centres unmarked) [Example 150, 4-(4-acetylpiperazin-1-yl)-2-[1-(1-phenylpyrazol-4-yl)ethylamino]-8-propan-2-yl-3,5,8-triazabicyclo[4.3.0]nona-1,3,5-trien-7-one]
18500 | 110 | CC(=O)N1CCN(c2nc(NC(C)(C)Cc3ccc(F)cc3)c3c(n2)C(=O)N(C(C)C)C3)CC1 [Example 14, 2-(4-acetylpiperazin-1-yl)-4-{[2-(4-fluorophenyl)-1,1-dimethylethyl]amino}-6-isopropyl-5,6-dihydro-7H-pyrrolo[3,4-d]pyrimidin-7-one]
13300 | 2300 | CC(=O)N1CCN(c2nc(NC3(c4ccc(Cl)cc4)CC3)c3c(n2)C(=O)N(C(C)C)C3)CC1 [Example 130]
2110 | 87 | CC(=O)N1CCN(c2nc(NCc3cc4ccccc4c(N(C)C)n3)c3c(n2)C(=O)N(C(C)C)C3)CC1 [Example 252, 2-(4-acetylpiperazin-1-yl)-4-((1-(dimethylamino)isoquinolin-3-yl)methylamino)-6-isopropyl-5H-pyrrolo[3,4-d]pyrimidin-7(6H)-one]
6750 | 160 | CC(=O)N1CCN(c2nc(NCc3nnc(-c4ccccc4)o3)c3c(n2)C(=O)N(C(C)C)C3)CC1 [Example 148, 4-(4-acetylpiperazin-1-yl)-2-[(5-phenyl-1,3,4-oxadiazol-2-yl)methylamino]-8-propan-2-yl-3,5,8-triazabicyclo[4.3.0]nona-1,3,5-trien-7-one]
1230 | 41 | CC(=O)N1CCN(c2nc(NCc3cc(-c4ccccc4)no3)c3c(n2)C(=O)N(C(C)C)C3)CC1 [Example 147, 4-(4-acetylpiperazin-1-yl)-2-[(3-phenyl-1,2-oxazol-5-yl)methylamino]-8-propan-2-yl-3,5,8-triazabicyclo[4.3.0]nona-1,3,5-trien-7-one]
